# Reference: patent US6951855B2, “Benzoxazinone derivatives for use in the treatment of angiogenesis” (AstraZeneca AB, priority 2001, dated 2005)
row,melting point [°C],SMILES
1,163 to 164,"COc1ccc(Oc2ccc3c(c2)OCC(=O)N3)cc1 [Example 1, 7-(4-Methoxyphenoxy)-2H-1,4-benzoxazin-3(4H)-one]"
2,250 to 251,"O=C1COc2cc(Oc3ccc(O)cc3)ccc2N1 [Example 2, 7-(4-Hydroxyphenoxy)-2H-1,4-benzoxazin-3(4H)-one]"
3,232 to 234,"Nc1ccc(Sc2ccc3c(c2)OCC(=O)N3)cc1 [Example 3, 7-[(4-Aminophenyl)sulfanyl]-2H-1,4-benzoxazin-3(4H)-one]"
4,204 to 205,"Nc1ccccc1Sc1ccc2c(c1)OCC(=O)N2 [Example 4, 7-[(2-Aminophenyl)sulfanyl]-2H-1,4-benzoxazin-3(4H)-one]"
5,181 to 182,"Nc1cccc(Sc2ccc3c(c2)OCC(=O)N3)c1 [Example 5, 7-[(3-Aminophenyl)sulfanyl]-2H-1,4-benzoxazine-3(4H)-one]"
6,224 to 225,"O=C1COc2cc(Sc3ccc(O)cc3)ccc2N1 [Example 6, 7-[(4-Hydroxyphenyl)sulfanyl]-2H-1,4-benzoxazin-3(4H)-one]"
7,170 to 171,"COc1ccc(Sc2ccc3c(c2)OCC(=O)N3)cc1OC [Example 7, 7-[(3,4-Dimethoxyphenyl)sulfanyl]-2H-1,4-benzoxazin-3(4H)-one]"
8,236 to 238,"O=C1COc2cc(Sc3ccc(O)c(O)c3)ccc2N1 [Example 8, 7-[(3,4-Dihydroxyphenyl)sulfanyl]-2H-1,4-benzoxazin-3(4H)-one]"
9,154 to 155,"O=C1COc2cc(SCc3ccccc3)ccc2N1 [Example 9, 7-Benzylsulfanyl-2H-1,4-benzoxazin-3(4H)-one]"
10,207 to 209,"O=C1COc2cc(SCc3ccc(O)cc3)ccc2N1 [Example 13, 7-(4-Hydroxybenzylsulfanyl)-2H-1,4-benzoxazin-3(4H)-one]"
11,174 to 175,"COc1ccc(Nc2ccc3c(c2)OCC(=O)N3)cc1 [Example 14, 7-(4-Methoxyanilino)-2H-1,4-benzoxazin-3(4H)-one]"
12,270 to 275,"O=C1COc2cc(Nc3ccc(O)cc3)ccc2N1 [Example 15, 7-(4-Hydroxyanilino)-2H-1,4-benzoxazin-3(4H)-one]"
13,209 to 210,"Nc1cccc(Oc2ccc3c(c2)OCC(=O)N3)c1 [Example 17, 7-(3-Aminophenoxy)-2H-1,4-benzoxazin-3(4H)-one]"
14,149 to 150,"Nc1ccccc1Oc1ccc2c(c1)OCC(=O)N2 [Example 18, 7-(2-Aminophenoxy)-2H-1,4-benzoxazin-3(4H)-one]"
15,230 to 232,"CC(=O)Nc1ccc(Oc2ccc3c(c2)OCC(=O)N3)cc1 [Example 19, 7-(4-Acetylaminophenoxy)-2H-1,4-benzoxazin-3(4H)-one]"
